Results from PMC11375437, “Selective labelling of GBA2 in cells with fluorescent β-D-arabinofuranosyl cyclitol aziridines” (Chemical Science, 2024).

Molecular target: T1, GBA2 (Homo sapiens, UniProt Q9HCG7)
T1 sequence (Q9HCG7 1-927): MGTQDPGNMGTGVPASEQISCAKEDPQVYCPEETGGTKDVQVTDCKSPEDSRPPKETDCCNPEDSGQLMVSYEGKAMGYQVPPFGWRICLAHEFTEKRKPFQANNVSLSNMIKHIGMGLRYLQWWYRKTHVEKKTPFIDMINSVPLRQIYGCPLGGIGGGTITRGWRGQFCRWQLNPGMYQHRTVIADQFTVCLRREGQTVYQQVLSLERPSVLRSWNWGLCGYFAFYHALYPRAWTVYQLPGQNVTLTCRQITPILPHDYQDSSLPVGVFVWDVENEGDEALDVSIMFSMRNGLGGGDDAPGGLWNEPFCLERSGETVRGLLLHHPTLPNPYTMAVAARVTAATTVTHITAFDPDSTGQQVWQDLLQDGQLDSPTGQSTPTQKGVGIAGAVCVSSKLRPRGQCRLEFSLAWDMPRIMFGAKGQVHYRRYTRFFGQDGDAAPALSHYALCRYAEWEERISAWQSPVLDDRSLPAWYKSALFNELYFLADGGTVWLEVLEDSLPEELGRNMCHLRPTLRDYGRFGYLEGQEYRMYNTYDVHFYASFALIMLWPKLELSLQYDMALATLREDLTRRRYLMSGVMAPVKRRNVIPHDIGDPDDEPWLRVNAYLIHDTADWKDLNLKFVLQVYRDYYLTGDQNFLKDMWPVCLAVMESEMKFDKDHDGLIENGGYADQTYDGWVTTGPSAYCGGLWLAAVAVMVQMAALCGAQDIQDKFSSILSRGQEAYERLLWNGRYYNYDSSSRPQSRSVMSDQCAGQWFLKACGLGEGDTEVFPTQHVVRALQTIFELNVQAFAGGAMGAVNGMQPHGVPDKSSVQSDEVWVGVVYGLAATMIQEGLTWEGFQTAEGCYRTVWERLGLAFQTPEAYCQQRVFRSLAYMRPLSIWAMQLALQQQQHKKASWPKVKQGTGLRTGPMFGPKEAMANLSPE
Assay: Labelling kinetics of ABP 4 on GBA2 by SDS-PAGE
Assay type: biochemical
Set-up: expressed in transfected cells; host or cells: HEK293T GBA1/GBA2 KO (CRISPR/Cas9), GBA2 overexpressed
Conditions: HEK293T GBA1/2 KO, GBA2 OE lysate; pH 5.8; 37 °C
Method: To this end, lysates of HEK293T cells containing all β-glucosidases (endogenous GBA1 with overexpressed GBA2 and GBA3) were treated with ABPs 3, 4, 5 or 7, followed by protein separation by SDS-PAGE and fluorescence scanning of the wet gel slabs. […] In contrast, the β-D-Araf aziridine ABPs 3 and 4 selectively labelled GBA2 at a concentration of 100 nM, while Cy5 tagged ABP 5 did so at 500 nM. The GBA2 selectivity of β-D-Araf cyclitol aziridines 3, 4 and 5 was confirmed in a mixture of a lysate of overexpressed GBA2 cells spiked with 3 ng rhGBA1 (Fig. 2C and ESI Fig. S3 ^†). […] Therefore, only a combined inactivation rate constant (kinact) and binding constant (KI) ratio (kinact/KI) could be measured. […] Importantly, no labelling of GBA1 or GBA3 was detected under varying pH and time conditions (ESI Fig. S4-2 ^†).
Figure S4-1. […] A) Percentage of GBA2 labelling by ABP 4 (left graphs), data was quantified from three independent sets of fluorescent gels under the depicted conditions. […]
of inhibitors diluted in McIlvaine buffer (150 mM, pH 5.2) at 37 °C for 30 min or 3 h. […] After stopping the enzyme reaction with 200 μL 1 M NaOH-glycine (pH 10.3), 4-methylumbelliferone fluorescence was measured with a fluorimeter LS55 (Perkin Elmer, Waltham, MA, USA) with λEX 366 nm and λEM 445 nm. […]

SMILES: COc1ccc(C2=[N+]3C(=C(CCCCc4cn(CCCCCCCCN5[C@@H]6[C@H](CO)[C@@H](O)[C@H](O)[C@@H]65)nn4)c4ccc(-c5ccc(OC)cc5)n4[B-]3(F)F)C=C2)cc1 (stereo partly shown) [ABP 4]
- kinact/KI: 19200 M⁻¹ s⁻¹
